Legend:
[1] = tested on: Mycobacterium tuberculosis Erdman (autoluminescent); assay: GRinf, maximum normalised growth rate inhibition (three-drug combination) (unitless (-1 to 1)); higher = less effect (negative = killing)
Method: (§1)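 DiaMOND equipotent three-drug combination dose responses (10 doses, 1.5- or 2-fold spacing, centred on IC90) against autoluminescent M. tuberculosis Erdman in 8 in vitro models. Read-out is OD600, or luminescence for the intracellular and dormancy models, normalised to untreated wells. Hill-fit Einf, AUC25 and GRinf are potency metrics; FIC50 and FIC90 are total Loewe fractional inhibitory concentrations as log2 (negative = synergy).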

[2] = tested on: Mycobacterium tuberculosis Erdman (autoluminescent); assay: Einf, fitted maximum growth inhibition of three-drug combination (fraction); higher = stronger maximal inhibition
Method: as §1

[3] = tested on: Mycobacterium tuberculosis Erdman (autoluminescent); assay: AUC25, normalised area under dose response up to IC25 (three-drug combination) (fraction (0-1)); higher = more potent at low dose
Method: as §1

[4] = tested on: Mycobacterium tuberculosis Erdman (autoluminescent); assay: total FIC50 (Loewe) at 50% inhibition, three-drug combination (log2); higher = more antagonistic
Method: as §1

[5] = tested on: Mycobacterium tuberculosis Erdman (autoluminescent); assay: total FIC90 (Loewe) at 90% inhibition, three-drug combination (log2); higher = more antagonistic
Method: as §1

CC(C)/N=c1\cc2n(-c3ccc(Cl)cc3)c3ccccc3nc-2cc1Nc1ccc(Cl)cc1 [clofazimine] + CC[C@@H](CO)NCCN[C@@H](CC)CO [ethambutol] + NC(=O)c1cnccn1 [pyrazinamide]
Conditions | AUC25, [3] | Einf, [2] | GRinf, [1] | total FIC50, [4] | total FIC90, [5]
in vitro model: acidic pH 5.7, time point: constant (~7 days, model-specific) | 0.112 | 0.725 | -0.183 | -0.812 | –
in vitro model: acidic pH 5.7, time point: terminal (~4-5 doublings, model-specific) | 0.0918 | 0.954 | -0.232 | 0.156 | -0.781
in vitro model: intracellular J774, time point: constant = terminal | – | 1 | -0.398 | – | -0.408

Conditions | AUC25, [3] | Einf, [2] | GRinf, [1] | total FIC50, [4] | total FIC90, [5]
in vitro model: butyrate, time point: constant (~7 days, model-specific) | 0.1 | 0.913 | -0.122 | -0.0529 | –
in vitro model: butyrate, time point: terminal (~4-5 doublings, model-specific) | 0.075 | 0.953 | -0.0327 | 0.0941 | -0.127
in vitro model: cholesterol 0.05 mM, time point: constant (~7 days, model-specific) | 0.147 | 0.758 | -0.487 | – | –
in vitro model: cholesterol 0.05 mM, time point: terminal (~4-5 doublings, model-specific) | 0.123 | 0.86 | -0.157 | 1.39 | –
in vitro model: cholesterol-high 0.2 mM, time point: constant (~7 days, model-specific) | 0.1 | 0.955 | -0.718 | 0.509 | –
in vitro model: cholesterol-high 0.2 mM, time point: terminal (~4-5 doublings, model-specific) | 0.0851 | 0.998 | -0.902 | 0.581 | 0.758
in vitro model: dormancy (butyrate + nitrate, low O2), time point: constant (~7 days, model-specific) | 0.0979 | 0.826 | 0.349 | -0.344 | –
in vitro model: dormancy (butyrate + nitrate, low O2), time point: terminal (~4-5 doublings, model-specific) | 0.124 | 0.999 | -0.842 | 0.325 | 1.52
in vitro model: standard 7H9 glycerol, time point: constant = terminal | 0.109 | 0.939 | -0.163 | 0.315 | –
in vitro model: valerate, time point: constant (~7 days, model-specific) | 0.117 | 0.792 | 0.253 | 0.627 | –
in vitro model: valerate, time point: terminal (~4-5 doublings, model-specific) | 0.0625 | 0.898 | 0.205 | 0.395 | –

CC(C)/N=c1\cc2n(-c3ccc(Cl)cc3)c3ccccc3nc-2cc1Nc1ccc(Cl)cc1 [clofazimine] + CC[C@@H](CO)NCCN[C@@H](CC)CO [ethambutol] + NNC(=O)c1ccncc1 [isoniazid]
Conditions | AUC25, [3] | Einf, [2] | GRinf, [1] | total FIC50, [4] | total FIC90, [5]
in vitro model: acidic pH 5.7, time point: constant (~7 days, model-specific) | 0.0868 | 0.732 | -0.0169 | 0.498 | –
in vitro model: acidic pH 5.7, time point: terminal (~4-5 doublings, model-specific) | 0.0876 | 0.955 | -0.0829 | 0.678 | 0.618
in vitro model: intracellular J774, time point: constant = terminal | – | 0.988 | -0.375 | – | -0.505

Conditions | AUC25, [3] | Einf, [2] | GRinf, [1] | total FIC50, [4] | total FIC90, [5]
in vitro model: butyrate, time point: constant (~7 days, model-specific) | 0.0914 | 0.946 | -0.098 | 0.523 | –
in vitro model: butyrate, time point: terminal (~4-5 doublings, model-specific) | 0.0804 | 0.976 | -0.12 | 0.504 | 0.513
in vitro model: cholesterol 0.05 mM, time point: constant (~7 days, model-specific) | 0.117 | 0.751 | -0.165 | 0.257 | –
in vitro model: cholesterol 0.05 mM, time point: terminal (~4-5 doublings, model-specific) | 0.126 | 0.852 | -0.135 | 1.57 | –
in vitro model: cholesterol-high 0.2 mM, time point: constant (~7 days, model-specific) | 0.0601 | 0.951 | -0.518 | 0.899 | –
in vitro model: cholesterol-high 0.2 mM, time point: terminal (~4-5 doublings, model-specific) | 0.0945 | 0.998 | -0.932 | 0.577 | 0.985
in vitro model: dormancy (butyrate + nitrate, low O2), time point: constant (~7 days, model-specific) | 0.0906 | 0.807 | 0.507 | 0.0627 | –
in vitro model: dormancy (butyrate + nitrate, low O2), time point: terminal (~4-5 doublings, model-specific) | 0.132 | 0.998 | -0.444 | -0.121 | 0.753
in vitro model: standard 7H9 glycerol, time point: constant = terminal | 0.118 | 0.954 | -0.121 | -0.209 | –
in vitro model: valerate, time point: constant (~7 days, model-specific) | 0.128 | 0.873 | 0.0565 | 0.974 | –
in vitro model: valerate, time point: terminal (~4-5 doublings, model-specific) | 0.0871 | 0.919 | 0.0494 | 0.446 | -0.137

CC(C)/N=c1\cc2n(-c3ccc(Cl)cc3)c3ccccc3nc-2cc1Nc1ccc(Cl)cc1 [clofazimine] + CC[C@@H](CO)NCCN[C@@H](CC)CO [ethambutol] + O=[N+]([O-])c1cn2c(n1)OC[C@@H](OCc1ccc(OC(F)(F)F)cc1)C2 [pretomanid]
Conditions | AUC25, [3] | Einf, [2] | GRinf, [1] | total FIC50, [4] | total FIC90, [5]
in vitro model: acidic pH 5.7, time point: constant (~7 days, model-specific) | 0.129 | 0.803 | -0.436 | 0.449 | –
in vitro model: acidic pH 5.7, time point: terminal (~4-5 doublings, model-specific) | 0.0966 | 0.954 | -0.21 | 0.46 | 0.859
in vitro model: intracellular J774, time point: constant = terminal | – | 0.987 | -0.321 | – | -1.25

Conditions | AUC25, [3] | Einf, [2] | GRinf, [1] | total FIC50, [4] | total FIC90, [5]
in vitro model: butyrate, time point: constant (~7 days, model-specific) | 0.103 | 0.962 | -0.142 | 0.411 | –
in vitro model: butyrate, time point: terminal (~4-5 doublings, model-specific) | 0.0799 | 0.981 | -0.138 | 0.442 | 0.382
in vitro model: cholesterol 0.05 mM, time point: constant (~7 days, model-specific) | 0.136 | 0.718 | -0.577 | – | –
in vitro model: cholesterol 0.05 mM, time point: terminal (~4-5 doublings, model-specific) | 0.131 | 0.84 | -0.0173 | 2.15 | –
in vitro model: cholesterol-high 0.2 mM, time point: constant (~7 days, model-specific) | 0.102 | 0.928 | -0.371 | 1.08 | –
in vitro model: cholesterol-high 0.2 mM, time point: terminal (~4-5 doublings, model-specific) | 0.0873 | 0.994 | -0.857 | 0.97 | 1.51
in vitro model: dormancy (butyrate + nitrate, low O2), time point: constant (~7 days, model-specific) | 0.106 | 0.824 | 0.446 | -0.084 | –
in vitro model: dormancy (butyrate + nitrate, low O2), time point: terminal (~4-5 doublings, model-specific) | 0.127 | 0.99 | -0.258 | -0.114 | 0.801
in vitro model: standard 7H9 glycerol, time point: constant = terminal | 0.126 | 0.956 | -0.273 | -0.284 | –
in vitro model: valerate, time point: constant (~7 days, model-specific) | 0.14 | 0.867 | -0.308 | 0.805 | –
in vitro model: valerate, time point: terminal (~4-5 doublings, model-specific) | 0.0932 | 0.92 | 0.0599 | 0.355 | 0.973
